What all share (type): biochemical
For test [1], the system named is sorbitol dehydrogenase derived from Flavimonas oryzihabitans A-520 strain. As to the kind of experiment: Substrate specificity (Vmax/Km, Km) of sorbitol dehydrogenase from A-520 strain. The note with it: enzyme from Flavimonas oryzihabitans A-520; for Vmax/Km: relative to D-sorbitol taken as 100. The procedure:
(§1) The sorbitol dehydrogenase of the invention has the foregoing physicochemical properties. In the present invention, the measurement of the activity of sorbitol dehydrogenase was carried out by adding an enzyme solution to a 80 mM Tris-HCl buffer (pH 9.0) containing 50 mM of D-sorbitol and 2 mM of NAD^+, slowly mixing them, and then measuring the change of absorbance at 340 nm by means of a spectrophotometer. The measurement was made at a temperature of 30° C. The amount of enzyme required to produce 1 μmol of NADH per minute was defined to be 1 unit (U).
(§2) (2) Substrate specificity: The Vmax/Km of the sorbitol dehydrogenase of the invention with respect to various substrates (relative to that with respect to D-sorbitol taken as 100) is about 40 or less for galactitol and about 3 or less for iditol, preferably about 30 or less for galactitol and about 2 or less for iditol. The Km for D-sorbitol is about 6 mM or less, preferably about 4 mM or less. Among the sorbitol dehydrogenases of the invention, the substrate specificities of those derived from Flavimonas oryzihabitans A-520 strain, Pseudomonas fluorescens A-989 strain and Pseudomonas fluorescens A-654 strain are shown in Table 2 below.
(§3) Vmax means the maximum velocity of the reaction at the saturated substrate concentration and Km means the Michaelis constant. The Vmax/Km values indicates the apparent […] of the enzyme reaction as a whole, which is generally used as an index for reflecting the substrate specificity. These values may be measured and calculated in accordance with the methods described in Chapter 8 of Biochemistry, second edition, by Albert Lehninger, 1975, Worth Publishers, Inc. or in Enzyme Structure and Mechanism, second edition, by Alan Fersht, 1984, W. H. Freeman & Co.

Test [2] concerns sorbitol dehydrogenase derived from Pseudomonas fluorescens A-989 strain. As to the kind of experiment: Substrate specificity (Vmax/Km, Km) of sorbitol dehydrogenase from A-989 strain. The following applies: enzyme from Pseudomonas fluorescens A-989; for Vmax/Km: relative to D-sorbitol taken as 100. On the procedure:
as §1, §2, §3

In test [3] the test system is sorbitol dehydrogenase derived from Pseudomonas fluorescens A-654 strain. As to the kind of experiment: Substrate specificity (Vmax/Km, Km) of sorbitol dehydrogenase from A-654 strain. The note with it: enzyme from Pseudomonas fluorescens A-654; for Vmax/Km: relative to D-sorbitol taken as 100. The procedure: as §1, §2, §3

Take `OC[C@H](O)[C@@H](O)[C@H](O)[C@@H](O)CO` [Iditol, L-iditol]: the values for the Vmax/Km in test [1], in test [2] and in test [3] were 1.99%, 2.78% and 1.55%, respectively.

As for `OC[C@@H](O)[C@H](O)[C@@H](O)CO` [Xylitol, xylitol], the Vmax/Km in test [1], in test [2] and in test [3] was 0% in each case.

Take `OC[C@@H](O)[C@@H](O)[C@H](O)[C@@H](O)CO` [Sorbitol, D-sorbitol]: the Km in test [1] was 2500 µM; in test [2] it was 5900 µM; in test [3], 3500 µM. Moreover, the Vmax/Km in test [1], in test [2] and in test [3] was 100% throughout.

Take `OC[C@@H](O)[C@@H](O)[C@H](O)[C@H](O)CO` [Mannitol, D-mannitol]: the Vmax/Km in test [1], in test [2] and in test [3] was 0% throughout.

For the compound `O=C[C@H](O)[C@@H](O)[C@H](O)[C@H](O)CO` [D-Glucose, D-glucose], the Vmax/Km in test [1], in test [2] and in test [3] was 0% in each case.

Turning to `OC[C@@H](O)[C@H](O)[C@H](O)[C@@H](O)CO` [Galactitol], the Km came out at 1900 µM in test [1], 3100 µM in test [2] and 2000 µM in test [3]. Besides, the results for the Vmax/Km in test [1], in test [2] and in test [3] were 28.9%, 36.8% and 31.9%, respectively.

In the case of `OC[C@@H](O)C(O)[C@H](O)CO` [Arbitol, D-arabitol], the Vmax/Km in test [1], in test [2] and in test [3] was 0% throughout.
